Values joined by “and” are separate entries in the source; they are usually repeats but may differ in a detail not shown here. Equal entries are not always repeated.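 Protocol summary: plate cells (96-well), add compound at 5 concentrations, incubate 48 h, interpolate endpoints linearly. Here, GI50 denotes the concentration required for 50% inhibition of growth. TGI: total growth inhibition.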
Assays:
Test in all cases: DTP human tumour cell line panel, 48 h
ACHN renal = test system: ACHN renal
HT29 colon = test system: HT29 colon
T-47D breast = test system: T-47D breast
CCRF-CEM leukemia = test system: CCRF-CEM leukemia
SK-OV-3 ovarian = test system: SK-OV-3 ovarian
SNB-19 CNS = test system: SNB-19 CNS
UACC-257 melanoma = test system: UACC-257 melanoma
UACC-62 melanoma = test system: UACC-62 melanoma
SR leukemia = test system: SR leukemia
CAKI-1 renal = test system: CAKI-1 renal

SMILES	TGI (ACHN renal)	TGI (HT29 colon)	TGI (T-47D breast)	TGI (CCRF-CEM leukemia)	TGI (SK-OV-3 ovarian)	TGI (SNB-19 CNS)	TGI (UACC-257 melanoma)	TGI (UACC-62 melanoma)	TGI (SR leukemia)	TGI (CAKI-1 renal)	GI50 (ACHN renal)	GI50 (HT29 colon)	GI50 (T-47D breast)	GI50 (CCRF-CEM leukemia)	GI50 (SK-OV-3 ovarian)	GI50 (SNB-19 CNS)	GI50 (UACC-257 melanoma)	GI50 (UACC-62 melanoma)	GI50 (SR leukemia)	GI50 (CAKI-1 renal)
C=CC1(C)CCC2C(=CCC3C2(C)CC(O)C(O)C3(C)COC2OC(CO)C(O)C(O)C2O)C1 (centres undefined)	> 100 µM	> 100 µM	> 100 µM	> 100 µM	> 100 µM	> 100 µM	> 100 µM	> 100 µM	> 100 µM	> 100 µM	–	–	–	–	–	–	–	–	–	–
Nc1c(C(=O)Nc2cccc(Cl)c2)sc2nc3c(cc12)C(=O)CCC3	> 100 µM	> 100 µM	> 100 µM	> 100 µM	> 70.5 µM	> 100 µM	> 100 µM	> 100 µM	> 100 µM	> 100 µM	> 20 µM	0.338 µM	0.422 µM	0.383 µM	0.313 µM	0.529 µM	> 100 µM	0.349 µM	0.383 µM	0.438 µM
C=CCC1(O)c2ccccc2C(=O)c2c(OCC(=O)OCC)ccc(OCC(=O)OCC)c21 (centres undefined)	> 100 µM	> 100 µM	> 100 µM	> 100 µM	–	> 100 µM	> 100 µM	> 100 µM	> 100 µM	> 100 µM	> 100 µM	> 100 µM	> 100 µM	> 100 µM	–	> 100 µM	> 100 µM	64.7 µM	82.6 µM	> 100 µM
COc1cccc2c1nc(C(F)F)n2-c1nc(-c2ccc(NS(=O)(=O)CCN(C)C)cc2)nc(N2CCOCC2)n1	11.2 µM	4.39 µM	0.0882 µM	20.5 µM	0.214 µM	> 100 µM	1.72 µM	1.45 µM	3.87 µM	4.69 µM	0.115 µM	0.0999 µM	0.0177 µM	0.257 µM	0.0396 µM	1.28 µM	0.116 µM	0.134 µM	0.319 µM	0.168 µM
O=c1[nH]c2ccccc2n1C1CCNCC1	> 100 µM	> 100 µM	> 100 µM	> 100 µM	> 100 µM	> 100 µM	> 100 µM	> 100 µM	> 100 µM	> 100 µM	> 100 µM	> 100 µM	> 100 µM	> 100 µM	> 100 µM	> 100 µM	> 100 µM	> 100 µM	> 100 µM	> 100 µM
CC[C@@]1(OP(=O)(O)O)C(=O)OCc2c1cc1n(c2=O)Cc2cc3ccccc3nc2-1	0.853 µM and 0.26 µM	–	0.867 µM	0.118 µM and 0.319 µM	7.98 µM and 6.46 µM	39.3 µM	2.58 µM and 3.86 µM	0.404 µM and 1.48 µM	0.0566 µM	1.04 µM	0.0243 µM	0.428 µM	–	–	0.105 µM	0.143 µM	–	0.0269 µM	–	–
C[N+]1([O-])C2CCC1CC(OC(=O)C(CO)c1ccccc1)C2 (centres undefined)	> 100 µM	> 100 µM	> 100 µM	> 100 µM	> 100 µM	> 100 µM	> 100 µM	> 100 µM	> 100 µM	> 100 µM	–	–	–	–	–	–	–	–	–	–
CC(=O)OCC1C(=O)OCC1C(=O)N1Cc2cc3ccccc3nc2C1 (centres undefined)	3.39 µM	10.3 µM	5.69 µM	3.79 µM	31.1 µM	32.8 µM	8.64 µM	7.99 µM	10.7 µM	3.16 µM	–	–	–	–	–	–	–	–	–	–
Cc1ccc(N)c(S)c1	37.9 µM	33.8 µM	33.9 µM	> 100 µM	70.8 µM	36.7 µM	54.7 µM	32.7 µM	45.8 µM	85 µM	–	–	–	–	–	–	–	–	–	–
COc1ccc2c(c1)[C@@H](NC(C)=O)CCc1cc(OC)c(OC)c(OC)c1-2	> 100 µM	0.124 µM	> 100 µM	> 100 µM	4.1 µM	> 10.5 µM	> 100 µM	> 26.8 µM	> 90.2 µM	99 µM	–	–	–	–	–	–	–	–	–	–
O=C(CCCc1ccc(N(CCCl)CCCl)cc1)NCc1ccccc1	> 100 µM	52 µM	87.1 µM	25.4 µM	40.8 µM	> 100 µM	55.5 µM	22 µM	3.66 µM	14.4 µM	3.91 µM	8.21 µM	8.04 µM	3.24 µM	7.15 µM	18.7 µM	12.1 µM	4.69 µM	0.978 µM	2.33 µM
CCN1CCN(CCC(=O)Nc2cccc(-n3cc(-c4ccncc4)c(-c4ccc(Cl)c(OC)c4)n3)c2)CC1	2.71 µM	1.22 µM	4.7 µM	10.3 µM	7.67 µM	5.61 µM	2.31 µM	2.34 µM	2.37 µM	–	0.782 µM	0.381 µM	0.841 µM	0.374 µM	1.84 µM	1.08 µM	0.864 µM	0.757 µM	0.433 µM	–
CC(C)=CCc1cc2c(cc1O)C1=C(C(=O)C3=C(NCCS3(=O)=O)C1=O)C(C=C(C)C)O2 (centres undefined)	> 16.7 µM	> 16.7 µM	> 16.7 µM	> 16.7 µM	> 16.7 µM	11.9 µM	9.66 µM	8.79 µM	> 16.7 µM	–	10.7 µM	7.35 µM	4.05 µM	4.53 µM	> 16.7 µM	3.81 µM	3.48 µM	3.39 µM	5.46 µM	–
Sc1cccc2cccnc12	12.8 µM	11.2 µM	12.3 µM	24.5 µM	13.8 µM	17.3 µM	12.3 µM	7.25 µM	> 56.1 µM	14.5 µM	0.697 µM	0.918 µM	3.07 µM	0.392 µM	3.04 µM	1.82 µM	1.37 µM	0.529 µM	0.28 µM	1.67 µM
O=C1NC(=O)C(c2c[nH]c3ccccc23)=C1c1c[nH]c2ccccc12	> 25 µM	> 25 µM	> 25 µM	> 25 µM	> 25 µM	> 25 µM	> 25 µM	> 25 µM	> 25 µM	> 25 µM	9.25 µM	11.2 µM	10.2 µM	10.5 µM	13.5 µM	> 25 µM	15.6 µM	12.1 µM	6.87 µM	7.37 µM
CC(C)(C)CC(C)(C)c1ccc(OCCO)cc1	> 75 µg/mL	28.1 µg/mL	18.3 µg/mL	40.1 µg/mL	28.6 µg/mL	19.5 µg/mL	16.9 µg/mL	15.9 µg/mL	> 75 µg/mL	8.37 µg/mL	6.05 µg/mL	10.6 µg/mL	2.1 µg/mL	6.02 µg/mL	11.2 µg/mL	6.58 µg/mL	2.39 µg/mL	3.51 µg/mL	1.43 µg/mL	0.678 µg/mL
CC(C)=CC[C@@H]1CC2(CC=C(C)C)C(=O)C(OC3(C(=O)c4ccccc4)C(=O)C4(CC=C(C)C)C[C@@H](CC=C(C)C)C(C)(C)C(CC=C(C)C)(C4=O)C3=O)(C(=O)c3ccccc3)C(=O)C(CC=C(C)C)(C2=O)C1(C)C (some centres undefined)	5.99 µM	4.31 µM	4.07 µM	5.52 µM	4 µM	6.65 µM	3.77 µM	1.98 µM	50 µM	5.95 µM	1.48 µM	1.41 µM	1.19 µM	1.64 µM	1.41 µM	1.64 µM	1.4 µM	0.878 µM	1.67 µM	1.49 µM
O=C(NCc1cn(Cc2cccc(Oc3ccccc3)c2)nn1)c1cccnc1Nc1ccc(F)cc1	> 100 µM	> 100 µM	> 100 µM	> 100 µM	36.1 µM	> 100 µM	> 100 µM	> 100 µM	–	> 100 µM	11 µM	5.6 µM	21.4 µM	> 100 µM	5.94 µM	20.7 µM	6.87 µM	6.51 µM	–	64.2 µM
Cn1ncnc1[C@@H]1c2n[nH]c(=O)c3cc(F)cc(c23)N[C@H]1c1ccc(F)cc1	> 100 µM	> 100 µM	> 100 µM	> 100 µM	> 100 µM	> 100 µM	–	> 100 µM	> 100 µM	> 100 µM	> 100 µM	> 100 µM	> 100 µM	91.6 µM	> 100 µM	> 100 µM	–	> 100 µM	33.2 µM	91.5 µM
COC(=O)N[C@H]1CCc2cc(OC)c(OC)c(OC)c2-c2ccc(SC)c(=O)cc21	> 100 µM	> 100 µM	> 100 µM	> 100 µM	> 100 µM	> 100 µM	> 100 µM	> 100 µM	> 100 µM	> 100 µM	< 0.01 µM	< 0.01 µM	> 100 µM	< 0.01 µM	< 0.01 µM	< 0.01 µM	50.7 µM	< 0.01 µM	< 0.01 µM	< 0.0166 µM
O=c1nc2n(-c3cccc(Cl)c3)c3ccc([N+](=O)[O-])cc3cc-2c(=O)[nH]1	16 µM	> 25 µM	> 25 µM	> 25 µM	> 25 µM	> 25 µM	> 25 µM	8.38 µM	–	16 µM	5.32 µM	9.06 µM	7.82 µM	2.09 µM	15 µM	7.5 µM	9.78 µM	3.54 µM	–	5.71 µM
CCOC(=O)c1noc2c1CCc1c-2cn(Cc2ccc(OC)cc2)c1-c1cc(OC)c(OC)c(OC)c1	> 100 µM	> 100 µM	> 100 µM	> 100 µM	> 100 µM	> 100 µM	> 100 µM	> 100 µM	> 100 µM	–	3.51 µM	0.846 µM	> 100 µM	1.04 µM	5.23 µM	0.668 µM	85.8 µM	2.74 µM	2.09 µM	–
NS(=O)(=O)c1ccc(N(/C=C/C(=O)C(F)(F)F)CC(=O)c2ccc(F)cc2)cc1	67.1 µM	> 100 µM	> 100 µM	41.5 µM	> 100 µM	> 100 µM	72.8 µM	31.9 µM	–	56.9 µM	21.3 µM	35.2 µM	43 µM	15.6 µM	63.3 µM	53.8 µM	22 µM	17.6 µM	–	22.6 µM
CCNC1=C(NC(=O)c2ccc(F)cc2)C(=O)c2ccccc2C1=O	> 100 µM	53.6 µM	> 100 µM	> 100 µM	> 100 µM	> 100 µM	46.9 µM	> 100 µM	> 100 µM	–	–	–	–	–	–	–	–	–	–	–
CN1CCN(Cc2ccc(NC(=O)c3cncc(C#Cc4cnc(N)c5ncccc45)c3)cc2C(F)(F)F)CC1	1.12 µM	1.48 µM	39.1 µM	–	9.07 µM	11.8 µM	5.6 µM	1.93 µM	–	4.07 µM	0.177 µM	0.157 µM	2.52 µM	0.324 µM	0.391 µM	2.11 µM	0.639 µM	0.341 µM	–	0.231 µM
O=S(=O)(NCCCNc1cc(-c2cn(-c3ccccc3)nc2-c2cccc(O)c2)ccn1)c1ccc(C(F)(F)F)cc1	10.7 µM	3.18 µM	7.08 µM	–	5.95 µM	5.55 µM	–	3.17 µM	5.83 µM	7.81 µM	3.08 µM	1.23 µM	2.49 µM	–	2.39 µM	2.04 µM	–	1.53 µM	1.78 µM	2.08 µM
C[C@@H]1CN2[C@H]3[C@@H]1CC[C@]31CCC(=O)O[C@]1(C)[C@H]1CC[C@H]3CCC=C3[C@@H]12	> 30 µM	> 30 µM	> 30 µM	> 30 µM	> 30 µM	> 30 µM	–	> 30 µM	> 30 µM	> 30 µM	> 30 µM	> 30 µM	> 30 µM	> 30 µM	> 30 µM	> 30 µM	–	> 30 µM	> 30 µM	> 30 µM
CC1=C(CCCOC(=O)[C@H](N)CC(C)C)C2=C(C)C3(CC3)[C@@](C)(O)C(=O)C2=C1	–	6.02 µM	6.53 µM	> 100 µM	3.03 µM	> 100 µM	6.06 µM	3.75 µM	> 100 µM	–	–	2.22 µM	1.84 µM	22.9 µM	0.752 µM	2.88 µM	2.53 µM	1.75 µM	12.8 µM	–

Source: PubChem BioAssay (NCI)
